{
  "source": "patent US20180371021A1",
  "about": "“PEPTIDOMIMETIC MACROCYCLES AND USES THEREOF” (Aileron Therapeutics, Inc., priority 2017, published 2018)",
  "key": {"[1]": {"tested_on": "MCF-7 breast cancer xenograft", "assay": "MCF-7 breast cancer xenograft study using SP315, SP249 and SP154", "assay_type": "in vivo, mice", "protocol": "Slow release 90 day 0.72 mg 17β-estradiol pellets were implanted subcutaneously (sc) on the nape of the neck one day prior to tumor cell implantation (Day −1). On Day 0, MCF-7 tumor cells were implanted sc in the flank of female nude (Cr1:NU-Foxn1nu) mice. On Day 18, the resultant sc tumors were measured using calipers to determine their length and width, and the mice were weighed. The tumor sizes were calculated using the formula (length×width^2)/2, and expressed as cubic millimeters (mm^3). Mice with tumors smaller than 85.3 mm^3 or larger than 417.4 mm^3 were excluded from the subsequent group formation. Thirteen groups of mice, 10 mice per group, were formed by randomization such that the group mean tumor sizes were essentially equivalent (mean of groups±standard deviation of groups=180.7±17.5 mm^3).\nThe peptide formulations were prepared once for the duration of the study. The vehicle was used as the vehicle control in the subsequent study.\nEach group was assigned to a different treatment regimen. Group 1, as the vehicle negative control group, received the vehicle administered at 8 mL/kg body weight intravenously (I.V.) three times per week from Days 18-39. […] Group 4 received 6.7 mg/kg SP249 as an I.V. injection three times per week. […] Group 9 received 30 mg/kg SP252 as an I.V. injection three times per week.\nDuring the dosing period, the mice were weighed and the tumors were measured 1-2 times per week. Tumor growth inhibition was compared with the vehicle group. Tumor growth inhibition (TGI) was calculated as\nwhere x=day that effect of treatment is being assessed."}, "[2]": {"tested_on": "MCF-7.1 human breast carcinoma xenograft", "assay": "MCF-7.1 human breast carcinoma xenograft model, AP1 and palbociclib", "assay_type": "in vivo, mice", "conditions": "AP1 20 mg/kg qwkx4, palbociclib 75 mg/kg qdx22", "protocol": "Female athymic nude mice were provided with drinking water with 10 μg/mL with 17 beta estradiol supplementation 3 days prior to cell implantation and for the duration of the study. […] The mice were between 8-12 weeks of age at the beginning of the study. […] The group was not euthanized, and the mice were allowed to recover. […] Animals were monitored individually. […] Responders were followed for a longer period of time. When the endpoint was reached, the animals were euthanized. […] An aqueous phosphate-buffered saline solution or sodium lactate (50 mM, pH 4.0) solution was used as the vehicle."}, "[3]": {"tested_on": "SJSA-1 osteosarcoma xenograft", "assay": "SJSA-1 osteosarcoma xenograft model, AP1 and palbociclib", "assay_type": "in vivo, mice", "conditions": "AP1 20 mg/kg qwkx4, palbociclib 75 mg/kg qdx22", "protocol": "The group was not euthanized, and the mice were allowed to recover. […] Animals were monitored individually. […] Responders were followed for a longer period of time. When the endpoint was reached, the animals were euthanized. […] An aqueous phosphate-buffered saline solution or sodium lactate (50 mM, pH 4.0) solution was used as the vehicle."}, "A549 xenograft": {"tested_on": "A549 xenograft", "assay": "A549 xenograft model, AP1 and palbociclib", "assay_type": "in vivo, mice", "conditions": "AP1 20 mg/kg qwkx4, palbociclib 75 mg/kg qdx22", "source_text": "The arrows indicate spontaneous tumor shrinkage in vehicle controls. The arrows with * indicate poor growth of tumors late in the study."}, "[4]": {"conditions": "39 patients treated with nivolumab; 30 patients treated with pembrolizumab; cited from earlier work"}, "[5]": {"conditions": "d22, calculated using vehicle median volumes on d0 and d22"}, "[6]": {"conditions": "three consecutive measurements > 150% of d1 volume"}},
  "note": "Bridge positions count the residues as written; N and C are the ends. Square brackets hold non-standard residues; d marks the D form. Peptide text beside a SMILES is read from it. Phe(4-COOH) = N[C@@H](Cc1ccc(C(=O)O)cc1)C(=O)O; R8 = C=CCCCCCC[C@@](C)(N)C(=O)O; Cba = N[C@@H](CC1CCC1)C(=O)O; S5 = C=CCCC[C@](C)(N)C(=O)O",
  "data": [
    {"compound": "CC[C@H](C)[C@H](NC(=O)[C@H](C)NC(=O)[C@H](C)NC(=O)[C@]1(C)CCCC=CCCCCCC[C@@](C)(NC(=O)[C@H](Cc2ccccc2)NC(=O)[C@@H](NC(=O)[C@H](CC(C)C)NC(C)=O)[C@@H](C)O)C(=O)N[C@@H](CCC(=O)O)C(=O)N[C@@H](Cc2ccc(C(=O)O)cc2)C(=O)N[C@@H](Cc2c[nH]c3ccccc23)C(=O)N[C@@H](C)C(=O)N[C@@H](CCC(N)=O)C(=O)N[C@@H](CC2CCC2)C(=O)N1)C(=O)N[C@H](C)C(N)=O", "note": "[SP249] (Ac-LTF[R8]E[Phe(4-COOH)]WAQ[Cba][S5]AAI[dA]-NH2; staple 4-11)", "values": [
      {"measurement": "mice died", "setting": "[1]; […] three times per week", "result": 4}
    ]},
    {"compound": "CC(=O)N[C@@H](CC(C)C)C(=O)N[C@H](C(=O)N[C@@H](C)C(=O)N[C@]1(C)CCCCCCC=CCCC[C@@](C)(C(=O)N[C@@H](CO)C(=O)N[C@@H](C)C(=O)N[C@@H](C)C(N)=O)NC(=O)[C@H](CC2CCC2)NC(=O)[C@H](CCC(N)=O)NC(=O)[C@H](C)NC(=O)[C@H](Cc2c[nH]c3ccccc23)NC(=O)[C@H](Cc2ccc(O)cc2)NC(=O)[C@H](CCC(=O)O)NC1=O)[C@@H](C)O", "note": "[SP252]", "values": [
      {"measurement": "body weight loss or deaths", "setting": "[1]; 30 mg/kg three times per week", "result": "No body weight loss or deaths"},
      {"measurement": "TGI", "setting": "[1]; 30 mg/kg three times per week, day 32", "result": 88, "unit": "%"}
    ]},
    {"compound": "CC(=O)c1c(C)c2cnc(Nc3ccc(N4CCNCC4)cn3)nc2n(C2CCCC2)c1=O", "note": "[palbociclib, reference compound]", "values": [
      {"measurement": "Median tumor volume (mm^3) D1", "setting": "[2]; D1 (start of dosing), MCF-7.1 xenograft, nude mice", "result": 108, "unit": "mm^3"},
      {"measurement": "Median tumor volume (mm^3) D22", "setting": "[2]; D22, MCF-7.1 xenograft, nude mice", "result": 196, "unit": "mm^3"},
      {"measurement": "Median time to tumor volume > 500 mm^3", "setting": "[2]; MCF-7.1 xenograft", "result": 37, "unit": "days"},
      {"measurement": "Median time to tumor volume > 1000 mm^3", "setting": "[2]; MCF-7.1 xenograft", "result": 48, "unit": "days"},
      {"measurement": "% TGI (±SEM) on d22 (end of dosing)", "setting": "[2]; [5]", "result": "84 (4) %"},
      {"measurement": "Animals with disease progression", "setting": "[2]; [6]", "result": "8/8"},
      {"measurement": "Median tumor volume (mm^3) D1", "setting": "[3]; D1 (start of dosing), SJSA-1 xenograft, nude mice", "result": 126, "unit": "mm^3"},
      {"measurement": "Median tumor volume (mm^3) D22", "setting": "[3]; D22, SJSA-1 xenograft, nude mice", "result": 1418, "unit": "mm^3"},
      {"measurement": "Median time to tumor volume > 1000 mm^3", "setting": "[3]; SJSA-1 xenograft", "result": 18, "unit": "days"},
      {"measurement": "Median time to tumor volume > 2000 mm^3", "setting": "[3]; SJSA-1 xenograft", "result": 24, "unit": "days"},
      {"measurement": "% TGI (±SEM) on d22 (end of dosing)", "setting": "[3]; [5]", "result": "51 (9) %"},
      {"measurement": "Animals with disease progression", "setting": "[3]; [6]", "result": "9/10"},
      {"measurement": "Median tumor volume (mm^3) D1", "setting": "A549 xenograft; D1 (start of dosing), A549 xenograft, nude mice", "result": 126, "unit": "mm^3"},
      {"measurement": "Median tumor volume (mm^3) D22", "setting": "A549 xenograft; D22, A549 xenograft, nude mice", "result": 288, "unit": "mm^3"},
      {"measurement": "% TGI (±SEM) on d22 (end of dosing)", "setting": "A549 xenograft; [5]", "result": "62 (7) %"},
      {"measurement": "Animals with disease progression", "setting": "A549 xenograft; [6]", "result": "9/10"}
    ]},
    {"compound": "nivolumab: PD-1/PD-L1 antagonist", "values": [
      {"measurement": "PRs", "setting": "[4]", "result": 2},
      {"measurement": "SDs", "setting": "[4]", "result": 12},
      {"measurement": "complete responses", "setting": "[4]", "result": 1},
      {"measurement": "shrinkages among SDs", "setting": "[4]", "result": 2}
    ]},
    {"compound": "pembrolizumab: PD-1/PD-L1 antagonist", "values": [
      {"measurement": "PRs", "setting": "[4]", "result": 3},
      {"measurement": "SDs", "setting": "[4]", "result": 11},
      {"measurement": "complete responses", "setting": "[4]", "result": 2},
      {"measurement": "shrinkages among SDs", "setting": "[4]", "result": 3}
    ]}
  ]
}
